Where two headings read alike, the source gives them in different places. Marks after values point to notes of the source that are not given here.
Tests used:
[1] = system: differentiating ReNcell VM NPCs; assay: cells
Method: (§1) On-chip cultures of undifferentiated and 10-day differentiated NPCs were stamped with WellChips filled with compound-containing solutions and incubated for 72 hr prior to viability assessment. Vehicle-control normalized viabilities were plotted against compound concentration to generate dose-response plots (Figures 5A and S4). […] The sigmoidal fits for undifferentiated and differentiating NPCs were compared to assess whether differential sensitivities (i.e., different IC50 values) existed for the screened compounds.
(§2) Cell viability was determined in 3D on-chip cultures using a mammalian cell viability assay (LIVE/DEAD, Invitrogen). Prior to the assay, dead cell controls were prepared with 30 min incubation in a WellChip containing either […] 0.5% (w/v) saponin-DMEM/F12 medium in its microwells. […] After staining, PillarChips were rinsed twice with warm DPBS and incubated in DPBS containing 50 mM trehalose (Sigma) for 10 min before rapid drying with nitrogen and storage in the dark. Dried PillarChips were imaged with a Thermo Scientific Cellomics ArrayScan VTI high-content system.
(§3) Undifferentiated and differentiated microchip cultures were prepared as described above. Chemicals were purchased from Sigma or the NIH Small Molecule Repository (Table S2). Concentrated stocks were prepared and diluted into ReNcell Maintenance Medium to prepare the highest screened concentration solution for each compound. Four-fold serial dilutions were made in ReNcell Maintenance Medium, with all solutions having a final concentration of 0.5% or 1% DMSO (v/v) and 20 μg/mL Matrigel. For undifferentiated cultures, the solutions also contained 20 ng/mL of EGF and FGF2. These solutions were printed into WellChips, covered with a gas-permeable membrane, and warmed at 37°C for at least 5 min before stamping with cells. Each WellChip contained six compounds each at six concentrations (n = 10 biological replicates for each concentration) and the appropriate medium containing 0.5% or 1% DMSO for vehicle and dead controls (n = 32 biological replicates per control). PillarChip cultures were incubated with compounds for 72 hr with daily medium exchange to freshly prepared WellChips containing compounds at the appropriate concentrations. […] On-chip toxicity screens were repeated three times for undifferentiated and differentiated cultures. […]

[2] = system: undifferentiated ReNcell VM NPCs; assay: cells
Method: as §1, §2, §3

[3] = system: undifferentiated ReNcell VM NPCs; assay: On-chip proliferation assay (EdU incorporation), undifferentiated NPCs; type: cell-based, human; conditions: for IC50 / Proliferation Effects Undifferentiating log(IC50 ± SEM): undifferentiated, 72 hr exposure, EdU for the final 24 hr, sigmoidal fit; for Effect on proliferation of NPC cultures (in words): state not specified
From the text: (§4) Differential toxic effects could be explained, in part, as a consequence of the different proliferative states between the undifferentiated and differentiating NPCs. To this end, the thymidine analog, 5-ethynyl-2′-deoxyuridine (EdU), was used to detect actively proliferating cells on-chip following exposure to compounds or vehicle control to determine dose-response effects on proliferation (Figures 5B and S5), and sigmoidal curves were fit, when appropriate, to obtain IC50 values (Table 1). We found ∼60% of undifferentiated NPCs incorporated EdU over a 24-hr period as opposed to ∼3% of differentiating cultures.
(§5) Undifferentiated and differentiating cultures were screened for toxicity as described previously, except that after the first 48 hr of exposure 10 μM EdU (Click-iT EdU, Invitrogen) was added to the compound-containing medium for the final 24 hr. After 72 hr, on-chip cultures were fixed and processed as described previously for on-chip immunofluorescence; however, instead of antibody staining the cultures were incubated with solution containing Alexa Fluor 488-azide for 30 min as specified in the product manual. Cultures were then rinsed with DPBS for 30 min, incubated in DPBS with Hoechst 33342 (5 μg/mL) for 30 min, and washed in DPBS for 30 min before proceeding with a trehalose wash and drying as described previously. Nuclei were selected using Cellomics software from blue channel images to create a mask, which was used for identification of fluorescently labeled EdU in the green channel for quantification of actively proliferating cells over the 24-hr EdU exposure.

[4] = system: differentiating ReNcell VM NPCs; assay: cells; type: cell-based, human; conditions: for IC50 / Proliferation Effects Differentiating log(IC50 ± SEM): differentiating, 72 hr exposure, EdU for the final 24 hr, sigmoidal fit
From the text: as §4, §5

[5] = differentiating cultures, 72 hr
[6] = undifferentiated cultures, 72 hr
[7] = Homo sapiens, ReNcell VM, read-out: Proliferation Effects Undifferentiating IC50
[8] = Homo sapiens, ReNcell VM, read-out: Proliferation Effects Undifferentiating log(IC50 ± SEM) (converted)
[9] = Homo sapiens, ReNcell VM, read-out: Viability Effects Differentiating IC50
[10] = Homo sapiens, ReNcell VM, read-out: Viability Effects Differentiating log(IC50 ± SEM) (converted)
[11] = Homo sapiens, ReNcell VM, 72 h, read-out: Viability Effects Undifferentiated IC50
[12] = Homo sapiens, ReNcell VM, 72 h, read-out: Viability Effects Undifferentiated log(IC50 ± SEM) (converted)
[13] = Homo sapiens, ReNcell VM, read-out: Proliferation Effects Differentiating IC50
[14] = Homo sapiens, ReNcell VM, read-out: Proliferation Effects Differentiating log(IC50 ± SEM) (converted)
[15] = 10-day differentiated (−EGF/FGF2), 72 hr exposure, 1% Matrigel on-chip, sigmoidal fit
[16] = read-out: Viability Effects Differentiating IC50, 10-day differentiated (−EGF/FGF2), 72 hr exposure, 1% Matrigel on-chip, sigmoidal fit
[17] = read-out: Viability Effects Undifferentiated IC50, undifferentiated (+EGF/FGF2), 72 hr exposure, 1% Matrigel on-chip, sigmoidal fit
[18] = undifferentiated (+EGF/FGF2), 72 hr exposure, 1% Matrigel on-chip, sigmoidal fit

CC(COc1ccccc1Cc1ccccc1)N1CCCCC1 (stereo not drawn) [Benproperone, Benproperine]
Normalized viability at Cmax, Differentiating, Mean ± SEM [1]: 0.71 ± 0.30 | Normalized viability at Cmax, Undifferentiated, Mean ± SEM [2]: 0.06 ± 0.52

CC(=O)[O-].CC(=O)[O-].[Pb+2] [Lead Acetate]
Effect on cell viability (in words) [1, 5]: did not reduce cell viability | Effect on cell viability (in words) [2, 6]: did not reduce cell viability

CN1CCN2c3ncccc3Cc3ccccc3C2C1 (stereo not drawn) [Mitrazepine, Mirtazapine]
Normalized viability at Cmax, Undifferentiated, Mean ± SEM ([2]; human, 72 h): 1.11 ± 0.09

C[n+]1ccc(-c2cc[n+](C)cc2)cc1 [Paraquat]
IC50 [3, 7]: 59 µM | IC50 [3, 8]: 58.9 µM | Normalized viability at Cmax, Differentiating, Mean ± SEM [1]: 0.05 ± 0.02 | IC50 [1, 9]: 41 µM | IC50 [1, 10]: 40.7 µM | Normalized viability at Cmax, Undifferentiated, Mean ± SEM [2]: -0.02 ± 0.03 | IC50 [2, 11]: 57 µM | IC50 [2, 12]: 63.1 µM | IC50 [4, 13]: 30 µM | IC50 [4, 14]: 30.2 µM

O=C(O)CNCP(=O)(O)O [Glyphosate]
Normalized viability at Cmax, Differentiating, Mean ± SEM [1]: 0.41 ± 0.14 | Normalized viability at Cmax, Undifferentiated, Mean ± SEM [2]: 0.01 ± 0.03

[Cl][Cd][Cl] [Cadmium Chloride]
Proliferation Effects Undifferentiating log(IC50 ± SEM) [3]: 0.93 log(μM) | IC50 ([3]; read-out: Proliferation Effects Undifferentiating IC50): 8.6 µM | Viability Effects Differentiating log(IC50 ± SEM) [1, 15]: 0.88 ± 0.27 log(μM) | IC50 [1, 16]: 7.6 µM | IC50 [2, 17]: 3.7 µM | Viability Effects Undifferentiated log(IC50 ± SEM) [2, 18]: 0.57 ± 0.3 log(μM) | Proliferation Effects Differentiating log(IC50 ± SEM) [4]: 1.18 log(μM) | IC50 ([4]; read-out: Proliferation Effects Differentiating IC50): 15 µM

O=C1CN=C(c2ccccc2)c2cc([N+](=O)[O-])ccc2N1 [Nitrazepam]
Normalized viability at Cmax, Differentiating, Mean ± SEM [1]: 1.07 ± 0.07 | Normalized viability at Cmax, Undifferentiated, Mean ± SEM [2]: 1.16 ± 0.13

O=c1[nH]cc(F)c(=O)[nH]1 [5-Fluorouracil]
IC50 [3, 7]: 1.35 µM | IC50 [3, 8]: 1.38 µM | Effect on proliferation of NPC cultures (in words) [3]: inhibit the proliferation | Effect on EdU incorporation (in words) ([3]; undifferentiated cultures): sharp decrease to no EdU incorporation | Effect on cell viability (in words) [1]: minimally impacting | IC50 [1, 9]: 2.3 µM | IC50 [1, 10]: 2.24 µM | Normalized viability at Cmax, Differentiating, Mean ± SEM ([1]; human, 72 h): 0.81 ± 0.17 | Effect on cell viability (in words) [2]: nearly complete killing | IC50 [2, 11]: 2.3 µM | IC50 [2, 12]: 2.29 µM | Normalized viability at Cmax, Undifferentiated, Mean ± SEM ([2]; human, 72 h): 0.15 ± 0.10 | IC50 [4, 13]: 1.82 µM | IC50 [4, 14]: 1.82 µM | Effect on EdU incorporation (in words) ([4]; differentiating cultures): sharp decrease to no EdU incorporation

CN(C)CCOC(c1ccccc1)c1ccccc1 [Diphenhydramine]
Cytotoxicity (in words) [2]: no cytotoxicity at functionally relevant concentrations

O=C(O)C[C@H](O)C[C@H](O)/C=C/c1c(C2CC2)nc2ccccc2c1-c1ccc(F)cc1 [Pitavistatin]
IC50 [3, 7]: 2 µM | IC50 [3, 8]: 1.95 µM | Effect on proliferation of NPC cultures (in words) [3]: inhibited proliferation | Effect on cell viability (in words) [1]: did not decrease the viability | Normalized viability at Cmax, Differentiating, Mean ± SEM [1]: 1.16 ± 0.07 | Effect on cell viability (in words) [2]: cytotoxic only to undifferentiated NPCs | Normalized viability at Cmax, Undifferentiated, Mean ± SEM [2]: 0.14 ± 0.11 | IC50 [2, 11]: 5.4 µM | IC50 [2, 12]: 5.37 µM | IC50 [4, 13]: 0.98 µM | IC50 [4, 14]: 0.977 µM

[Cl][Mn][Cl] [Manganese Chloride]
Effect on cell viability (in words) [1, 5]: did not reduce cell viability | Effect on cell viability (in words) [2, 6]: did not reduce cell viability

CC1(C)C[C@@H]1C(=O)N/C(=C\CCCCSC[C@H](N)C(=O)O)C(=O)O [Cilastatin]
Effect on proliferation of NPC cultures (in words) [3]: did not | Effect on cell viability (in words) [1, 5]: had no effect | Effect on cell viability (in words) [2, 6]: had no effect

CC1=C(/C=C/C(C)=C/C=C/C(C)=C/C(=O)O)C(C)(C)CCC1 [Retinoic Acid]
IC50 [3, 7]: 15 µM | IC50 [3, 8]: 14.8 µM | IC50 [1, 9]: 47 µM | IC50 [1, 10]: 50.1 µM | Normalized viability at Cmax, Differentiating, Mean ± SEM ([1]; human, 72 h): 0.50 ± 0.13 | IC50 [2, 11]: 0.74 µM | IC50 [2, 12]: 0.741 µM | Normalized viability at Cmax, Undifferentiated, Mean ± SEM ([2]; human, 72 h): 0.55 ± 0.16 | IC50 [4, 13]: 22 µM | IC50 [4, 14]: 22.4 µM | Increase of the average number of proliferating cells ([4]; differentiated cultures, at lower concentrations): greater than 3 fold

CCCC(CCC)C(=O)O [Valproic Acid]
Normalized viability at Cmax, Differentiating, Mean ± SEM ([1]; human, 72 h): 1.09 ± 0.10 | Normalized viability at Cmax, Undifferentiated, Mean ± SEM ([2]; human, 72 h): 0.99 ± 0.08

Nc1ccn([C@@H]2O[C@H](CO)[C@@H](O)[C@@H]2O)c(=O)n1 [Cytosine Arabinoside]
Proliferation Effects Undifferentiating log(IC50 ± SEM) [3]: < −1 log(μM) | Normalized viability at Cmax, Differentiating, Mean ± SEM [1]: 0.47 ± 0.12 | Viability Effects Differentiating log(IC50 ± SEM) [1, 15]: 0.55 ± 0.55 log(μM) | IC50 [1, 16]: 3.5 µM | Normalized viability at Cmax, Undifferentiated, Mean ± SEM [2]: 0.40 ± 0.03 | IC50 [2, 17]: 0.33 µM | Viability Effects Undifferentiated log(IC50 ± SEM) [2, 18]: −0.48 ± 0.17 ^b log(μM) | Proliferation Effects Differentiating log(IC50 ± SEM) [4]: < −1 log(μM)

Fc1ccc([C@@H]2CCNC[C@H]2COc2ccc3c(c2)OCO3)cc1 [Paroxetine]
Normalized viability at Cmax, Differentiating, Mean ± SEM ([1]; human, 72 h): 0.30 ± 0.38 | Normalized viability at Cmax, Undifferentiated, Mean ± SEM ([2]; human, 72 h): 0.07 ± 0.13

C[C@@H]1C[C@H]2[C@@H]3CCC4=CC(=O)C=C[C@]4(C)[C@@]3(F)[C@@H](O)C[C@]2(C)[C@@]1(O)C(=O)CO [Dexamethasone]
Normalized viability at Cmax, Differentiating, Mean ± SEM ([1]; human, 72 h): 1.08 ± 0.16 | Normalized viability at Cmax, Undifferentiated, Mean ± SEM ([2]; human, 72 h): 1.35 ± 0.33
